Reference: ChEMBL document CHEMBL5291721, “A preclinical secondary pharmacology resource illuminates target-adverse drug reaction associations of marketed drugs” (Nat Commun, 2023)

Tests used:
[1] = target: 5-hydroxytryptamine receptor 2A (Homo sapiens, UniProt P28223); type: functional, cell-based
[2] = target: T1, Prostaglandin G/H synthase 1 (Rattus norvegicus, UniProt Q63921); type: functional
T1 sequence (Q63921 whole entry): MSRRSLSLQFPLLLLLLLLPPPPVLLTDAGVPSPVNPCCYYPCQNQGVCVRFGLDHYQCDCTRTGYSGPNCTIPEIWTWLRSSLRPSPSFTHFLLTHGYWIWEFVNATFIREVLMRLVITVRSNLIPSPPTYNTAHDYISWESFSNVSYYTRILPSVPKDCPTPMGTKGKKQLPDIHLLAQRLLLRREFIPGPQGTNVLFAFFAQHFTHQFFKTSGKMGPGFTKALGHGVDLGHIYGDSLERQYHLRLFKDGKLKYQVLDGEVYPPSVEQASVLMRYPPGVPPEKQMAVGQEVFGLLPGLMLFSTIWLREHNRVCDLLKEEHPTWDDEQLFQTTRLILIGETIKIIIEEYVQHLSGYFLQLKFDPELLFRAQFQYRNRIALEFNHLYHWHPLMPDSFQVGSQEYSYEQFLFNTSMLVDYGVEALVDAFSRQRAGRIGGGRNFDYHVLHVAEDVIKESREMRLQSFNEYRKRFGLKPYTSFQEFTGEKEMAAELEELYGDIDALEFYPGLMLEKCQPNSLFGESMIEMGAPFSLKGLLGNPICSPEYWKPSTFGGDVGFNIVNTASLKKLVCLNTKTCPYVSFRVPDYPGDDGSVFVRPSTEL

[3] = target: cGMP-inhibited 3',5'-cyclic phosphodiesterase 3A (Homo sapiens, UniProt Q14432); type: functional
[4] = target: T2, Neuropeptide Y receptor type 1 (Homo sapiens, UniProt P25929)
T2 sequence (P25929 whole entry): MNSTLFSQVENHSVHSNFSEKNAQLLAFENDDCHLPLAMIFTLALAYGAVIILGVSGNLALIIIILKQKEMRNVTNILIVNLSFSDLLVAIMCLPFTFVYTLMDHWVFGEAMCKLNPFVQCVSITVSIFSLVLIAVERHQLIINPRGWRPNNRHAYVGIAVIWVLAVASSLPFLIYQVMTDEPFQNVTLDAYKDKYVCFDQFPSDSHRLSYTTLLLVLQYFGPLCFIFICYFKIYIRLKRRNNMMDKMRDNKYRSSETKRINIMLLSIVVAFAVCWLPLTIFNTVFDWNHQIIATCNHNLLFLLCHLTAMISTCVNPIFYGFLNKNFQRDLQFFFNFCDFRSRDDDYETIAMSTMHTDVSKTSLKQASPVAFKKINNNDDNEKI

[5] = target: Neuronal acetylcholine receptor subunit alpha-4 (Homo sapiens, UniProt P43681)
Mu-type opioid receptor = Mu-type opioid receptor (Homo sapiens, UniProt P35372); assay: biochemical; type: functional
Histamine H1 receptor = Histamine H1 receptor (Homo sapiens, UniProt P35367)
[6] = target: T3, Muscarinic acetylcholine receptor M2 (Homo sapiens, UniProt P08172); type: functional, cell-based
T3 sequence (P08172 whole entry): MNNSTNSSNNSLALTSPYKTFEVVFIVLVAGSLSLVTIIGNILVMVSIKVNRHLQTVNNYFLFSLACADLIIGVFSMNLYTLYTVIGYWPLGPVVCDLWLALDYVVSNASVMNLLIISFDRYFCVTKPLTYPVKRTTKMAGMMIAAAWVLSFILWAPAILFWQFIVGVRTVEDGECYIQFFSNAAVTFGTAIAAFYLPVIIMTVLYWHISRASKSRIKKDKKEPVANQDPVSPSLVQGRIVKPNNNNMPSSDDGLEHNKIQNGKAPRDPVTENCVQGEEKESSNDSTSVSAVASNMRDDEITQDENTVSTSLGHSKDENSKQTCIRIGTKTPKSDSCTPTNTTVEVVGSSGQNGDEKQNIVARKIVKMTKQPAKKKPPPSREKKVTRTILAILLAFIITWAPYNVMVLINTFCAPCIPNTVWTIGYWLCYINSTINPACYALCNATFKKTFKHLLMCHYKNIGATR

Vasopressin V1a receptor = Vasopressin V1a receptor (Homo sapiens, UniProt P37288)
Adenosine receptor A2a = Adenosine receptor A2a (Homo sapiens, UniProt P29274)
[7] = target: Sodium-dependent serotonin transporter (Homo sapiens, UniProt P31645)
[8] = target: Glutamate receptor ionotropic, NMDA 1 (Rattus norvegicus, UniProt P35439)
[9] = target: T4, 5-hydroxytryptamine receptor 2C (Homo sapiens, UniProt P28335)
T4 sequence (P28335 whole entry): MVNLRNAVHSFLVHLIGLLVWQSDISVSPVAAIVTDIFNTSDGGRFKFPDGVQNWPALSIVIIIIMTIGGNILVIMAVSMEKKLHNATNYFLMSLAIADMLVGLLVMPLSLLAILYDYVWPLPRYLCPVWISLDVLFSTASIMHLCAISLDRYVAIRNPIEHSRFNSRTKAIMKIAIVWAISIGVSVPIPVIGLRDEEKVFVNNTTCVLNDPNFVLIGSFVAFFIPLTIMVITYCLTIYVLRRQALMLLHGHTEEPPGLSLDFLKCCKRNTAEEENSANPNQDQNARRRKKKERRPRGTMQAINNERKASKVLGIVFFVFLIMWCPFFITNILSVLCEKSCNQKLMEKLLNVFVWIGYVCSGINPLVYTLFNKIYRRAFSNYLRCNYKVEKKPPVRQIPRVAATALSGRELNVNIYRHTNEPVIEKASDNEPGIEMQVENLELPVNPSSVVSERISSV

[10] = target: Sodium-dependent noradrenaline transporter (Homo sapiens, UniProt P23975)
[11] = target: 3',5'-cyclic-AMP phosphodiesterase 4D (Homo sapiens, UniProt Q08499); type: functional
Motilin receptor = Motilin receptor (Homo sapiens, UniProt O43193)
[12] = target: Beta-1 adrenergic receptor (Homo sapiens, UniProt P08588); type: functional
Note: assay procedure not described here.

3',5'-cyclic-AMP phosphodiesterase 4D, sequence (Q08499 whole entry): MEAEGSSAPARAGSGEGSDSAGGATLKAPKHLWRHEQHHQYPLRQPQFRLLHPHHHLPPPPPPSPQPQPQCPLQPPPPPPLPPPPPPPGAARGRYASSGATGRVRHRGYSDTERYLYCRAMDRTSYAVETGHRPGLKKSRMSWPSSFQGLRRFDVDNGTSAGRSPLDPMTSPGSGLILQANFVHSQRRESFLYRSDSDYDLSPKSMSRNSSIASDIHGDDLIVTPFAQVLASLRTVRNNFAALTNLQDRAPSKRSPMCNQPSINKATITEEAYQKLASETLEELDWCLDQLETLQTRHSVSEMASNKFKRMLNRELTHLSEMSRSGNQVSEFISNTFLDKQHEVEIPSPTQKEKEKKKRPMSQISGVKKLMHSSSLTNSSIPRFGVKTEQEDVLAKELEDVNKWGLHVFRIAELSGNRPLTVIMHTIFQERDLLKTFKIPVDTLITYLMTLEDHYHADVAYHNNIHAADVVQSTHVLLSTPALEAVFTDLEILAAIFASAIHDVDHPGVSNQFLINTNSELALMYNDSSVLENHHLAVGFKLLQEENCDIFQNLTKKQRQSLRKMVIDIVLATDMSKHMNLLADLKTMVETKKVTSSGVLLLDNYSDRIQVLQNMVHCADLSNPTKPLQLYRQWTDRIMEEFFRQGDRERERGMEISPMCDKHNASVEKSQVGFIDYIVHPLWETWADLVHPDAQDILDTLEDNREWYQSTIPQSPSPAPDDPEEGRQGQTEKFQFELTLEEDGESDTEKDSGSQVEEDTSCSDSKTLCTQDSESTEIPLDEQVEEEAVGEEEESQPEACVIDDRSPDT
Beta-1 adrenergic receptor, sequence (P08588 whole entry): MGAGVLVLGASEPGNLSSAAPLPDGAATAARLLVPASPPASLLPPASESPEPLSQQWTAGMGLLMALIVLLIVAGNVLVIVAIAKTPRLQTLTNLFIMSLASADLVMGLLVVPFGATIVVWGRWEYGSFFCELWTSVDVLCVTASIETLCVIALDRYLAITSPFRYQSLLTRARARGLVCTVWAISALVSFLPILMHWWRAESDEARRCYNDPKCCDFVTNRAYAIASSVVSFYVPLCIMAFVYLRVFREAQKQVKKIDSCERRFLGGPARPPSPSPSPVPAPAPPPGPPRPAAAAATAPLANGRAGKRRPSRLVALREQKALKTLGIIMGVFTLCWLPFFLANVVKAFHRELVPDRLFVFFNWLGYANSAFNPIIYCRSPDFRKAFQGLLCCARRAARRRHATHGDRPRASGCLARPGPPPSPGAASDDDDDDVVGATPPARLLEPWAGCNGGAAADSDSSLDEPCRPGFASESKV
5-hydroxytryptamine receptor 2A, sequence (P28223 whole entry): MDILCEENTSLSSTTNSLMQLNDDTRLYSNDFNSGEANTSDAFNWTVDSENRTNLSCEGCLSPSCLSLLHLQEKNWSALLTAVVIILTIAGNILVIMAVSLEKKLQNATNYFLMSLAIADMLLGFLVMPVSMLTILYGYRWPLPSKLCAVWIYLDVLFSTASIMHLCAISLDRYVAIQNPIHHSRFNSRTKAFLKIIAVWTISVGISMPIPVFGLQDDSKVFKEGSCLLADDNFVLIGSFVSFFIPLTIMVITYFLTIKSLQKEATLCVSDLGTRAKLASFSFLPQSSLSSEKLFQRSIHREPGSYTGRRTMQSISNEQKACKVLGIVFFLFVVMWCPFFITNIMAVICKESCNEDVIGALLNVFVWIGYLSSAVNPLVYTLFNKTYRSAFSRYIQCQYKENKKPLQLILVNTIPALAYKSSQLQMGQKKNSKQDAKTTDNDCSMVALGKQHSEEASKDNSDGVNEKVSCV
Mu-type opioid receptor, sequence (P35372 whole entry): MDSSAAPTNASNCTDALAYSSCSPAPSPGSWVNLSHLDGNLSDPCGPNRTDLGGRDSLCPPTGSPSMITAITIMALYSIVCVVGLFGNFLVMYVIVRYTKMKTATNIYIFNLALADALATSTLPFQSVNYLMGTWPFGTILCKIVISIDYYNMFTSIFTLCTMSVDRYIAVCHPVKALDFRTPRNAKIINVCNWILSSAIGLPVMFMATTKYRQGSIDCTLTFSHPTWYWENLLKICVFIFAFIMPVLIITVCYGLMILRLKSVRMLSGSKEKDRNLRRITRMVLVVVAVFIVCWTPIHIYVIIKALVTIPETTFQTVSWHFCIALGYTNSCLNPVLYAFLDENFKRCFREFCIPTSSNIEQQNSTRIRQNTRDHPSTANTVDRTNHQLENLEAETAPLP
Histamine H1 receptor, sequence (P35367 whole entry): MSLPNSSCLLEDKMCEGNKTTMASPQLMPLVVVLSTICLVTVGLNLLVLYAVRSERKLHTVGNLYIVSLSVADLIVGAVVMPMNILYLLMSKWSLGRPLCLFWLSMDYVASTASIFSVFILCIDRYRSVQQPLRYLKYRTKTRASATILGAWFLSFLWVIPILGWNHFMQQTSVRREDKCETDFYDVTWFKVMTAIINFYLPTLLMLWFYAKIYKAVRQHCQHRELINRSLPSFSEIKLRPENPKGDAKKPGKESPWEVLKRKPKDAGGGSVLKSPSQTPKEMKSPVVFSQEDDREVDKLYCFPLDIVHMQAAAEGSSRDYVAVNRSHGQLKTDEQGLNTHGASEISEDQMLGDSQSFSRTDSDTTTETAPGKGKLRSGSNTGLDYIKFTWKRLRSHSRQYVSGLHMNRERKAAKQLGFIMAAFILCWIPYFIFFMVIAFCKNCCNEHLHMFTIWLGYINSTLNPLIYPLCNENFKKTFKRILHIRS
Sodium-dependent serotonin transporter, sequence (P31645 whole entry): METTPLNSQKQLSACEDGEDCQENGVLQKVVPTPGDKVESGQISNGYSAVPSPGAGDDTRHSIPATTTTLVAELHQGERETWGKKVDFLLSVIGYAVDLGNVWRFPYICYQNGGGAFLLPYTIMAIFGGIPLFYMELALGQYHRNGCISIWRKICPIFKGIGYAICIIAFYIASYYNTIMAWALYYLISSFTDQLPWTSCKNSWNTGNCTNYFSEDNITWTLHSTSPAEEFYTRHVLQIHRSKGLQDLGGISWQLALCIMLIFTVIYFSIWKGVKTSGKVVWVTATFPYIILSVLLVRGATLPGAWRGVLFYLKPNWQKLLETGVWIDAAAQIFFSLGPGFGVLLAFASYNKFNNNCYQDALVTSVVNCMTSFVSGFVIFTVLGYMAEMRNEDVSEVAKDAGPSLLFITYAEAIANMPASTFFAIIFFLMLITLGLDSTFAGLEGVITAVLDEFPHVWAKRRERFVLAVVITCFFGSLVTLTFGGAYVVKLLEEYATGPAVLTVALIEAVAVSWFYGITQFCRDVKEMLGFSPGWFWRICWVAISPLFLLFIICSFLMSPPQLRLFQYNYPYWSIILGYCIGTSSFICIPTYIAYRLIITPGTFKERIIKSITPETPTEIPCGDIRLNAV
Vasopressin V1a receptor, sequence (P37288 whole entry): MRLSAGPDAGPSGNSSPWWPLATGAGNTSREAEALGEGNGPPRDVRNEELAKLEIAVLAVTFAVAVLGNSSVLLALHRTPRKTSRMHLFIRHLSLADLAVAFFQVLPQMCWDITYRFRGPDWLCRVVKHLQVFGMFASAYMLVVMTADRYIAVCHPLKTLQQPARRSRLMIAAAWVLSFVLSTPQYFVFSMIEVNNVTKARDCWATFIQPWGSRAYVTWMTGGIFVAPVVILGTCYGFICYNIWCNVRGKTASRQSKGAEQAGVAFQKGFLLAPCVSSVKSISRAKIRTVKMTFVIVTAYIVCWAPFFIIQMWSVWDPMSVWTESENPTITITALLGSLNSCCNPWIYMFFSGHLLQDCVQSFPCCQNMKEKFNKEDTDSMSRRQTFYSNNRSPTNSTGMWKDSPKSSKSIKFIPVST
Sodium-dependent noradrenaline transporter, sequence (P23975 whole entry): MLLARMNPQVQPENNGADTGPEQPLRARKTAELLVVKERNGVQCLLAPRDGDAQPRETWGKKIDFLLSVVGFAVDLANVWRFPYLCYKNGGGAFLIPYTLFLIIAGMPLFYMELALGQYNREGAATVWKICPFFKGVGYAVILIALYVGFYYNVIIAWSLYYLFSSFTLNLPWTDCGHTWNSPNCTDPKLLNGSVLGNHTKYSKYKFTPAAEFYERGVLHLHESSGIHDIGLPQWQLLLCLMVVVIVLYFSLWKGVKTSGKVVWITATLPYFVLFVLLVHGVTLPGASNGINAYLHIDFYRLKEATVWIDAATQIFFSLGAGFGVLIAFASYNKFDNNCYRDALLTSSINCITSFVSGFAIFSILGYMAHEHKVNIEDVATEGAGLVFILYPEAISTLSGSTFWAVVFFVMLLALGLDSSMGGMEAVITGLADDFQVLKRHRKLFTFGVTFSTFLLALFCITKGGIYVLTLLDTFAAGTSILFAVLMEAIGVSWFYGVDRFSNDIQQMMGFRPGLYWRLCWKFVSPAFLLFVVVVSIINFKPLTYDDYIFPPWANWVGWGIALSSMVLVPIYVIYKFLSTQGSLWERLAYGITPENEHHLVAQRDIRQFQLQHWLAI
Adenosine receptor A2a, sequence (P29274 whole entry): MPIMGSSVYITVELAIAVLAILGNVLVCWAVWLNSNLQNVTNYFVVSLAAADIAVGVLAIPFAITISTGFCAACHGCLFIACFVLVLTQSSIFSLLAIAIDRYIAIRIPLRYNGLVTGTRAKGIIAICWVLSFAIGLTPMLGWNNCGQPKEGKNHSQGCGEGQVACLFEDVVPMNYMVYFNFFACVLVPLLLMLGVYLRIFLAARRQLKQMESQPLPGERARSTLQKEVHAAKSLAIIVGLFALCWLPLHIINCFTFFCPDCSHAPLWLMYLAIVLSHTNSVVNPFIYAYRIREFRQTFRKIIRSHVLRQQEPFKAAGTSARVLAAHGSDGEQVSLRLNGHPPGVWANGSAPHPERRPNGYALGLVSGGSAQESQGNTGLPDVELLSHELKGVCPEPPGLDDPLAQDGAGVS

SMILES | AC50 [1] [µM] | AC50 [2] [µM] | AC50 [3] [µM] | AC50 [4] [µM] | AC50 [5] [µM] | AC50 (Mu-type opioid receptor) [µM] | AC50 (Histamine H1 receptor) [µM] | AC50 [6] [µM] | AC50 (Vasopressin V1a receptor) [µM] | AC50 (Adenosine receptor A2a) [µM] | AC50 [7] [µM] | AC50 [8] [µM] | AC50 [9] [µM] | AC50 [10] [µM] | AC50 [11] [µM] | AC50 (Motilin receptor) [µM] | AC50 [12] [µM]
COc1ccccc1N1CCN(CCCNc2cc(=O)n(C)c(=O)n2C)CC1 | > 30 | > 30 | 9.5 | > 30 | > 30 | > 30 | 4.3 | > 30 | > 30 | > 30 | 9.5 | > 30 | > 30 | > 30 | > 10 | > 30 | –
OC(CNCC(O)C1CCc2cc(F)ccc2O1)C1CCc2cc(F)ccc2O1 (stereo unspecified) [NEBIVOLOL] | > 30 | > 30 | > 30 | 24 | > 30 | 3.3 | > 30 | > 30 | > 30 | > 30 | 0.75 | > 30 | 20 | 1.5 | > 30 | 21 | –
CC(=O)O[C@H]1C[C@@H]2CC[C@@H]3[C@H](CC[C@@]4(C)[C@H]3C[C@H]([N+]3(C)CCCCC3)[C@@H]4OC(C)=O)[C@@]2(C)C[C@@H]1N1CCCCC1 [VECURONIUM] | – | 14 | > 30 | > 30 | > 30 | > 30 | – | > 30 | – | > 30 | – | > 30 | > 30 | > 30 | > 30 | > 30 | > 30
CCCN(CCC)C(=O)C(CCC(=O)O)NC(=O)c1ccccc1 (stereo unspecified) [PROGLUMIDE] | – | > 30 | > 30 | > 30 | > 30 | > 30 | – | > 10 | > 30 | > 30 | – | > 10 | > 30 | > 30 | > 30 | > 30 | > 30
CCCCCCOc1ccccc1C(N)=O [EXALAMIDE] | > 30 | > 30 | > 30 | > 30 | > 30 | > 30 | > 30 | – | > 30 | > 30 | > 30 | > 30 | > 30 | > 30 | > 30 | > 30 | > 30
Cc1cccc(C(C)c2cnc[nH]2)c1C (stereo unspecified) [MEDETOMIDINE] | > 30 | > 30 | > 30 | > 30 | > 30 | > 30 | > 30 | > 10 | > 30 | > 30 | – | > 10 | > 30 | > 30 | > 30 | > 30 | > 30
CO/N=C(\C(=O)N[C@@H]1C(=O)N2C(C(=O)O)=C(CSc3nnnn3C)CS[C@H]12)c1csc(N)n1 [CEFMENOXIME] | > 30 | > 30 | > 30 | > 30 | > 30 | > 30 | > 30 | > 30 | > 30 | > 30 | > 30 | – | – | > 30 | > 30 | > 30 | > 30
Cc1ccc(S(=O)(=O)NC(=O)NN2CC3CCCC3C2)cc1 (stereo unspecified) [GLICLAZIDE] | – | > 10 | > 30 | > 10 | > 10 | > 30 | – | > 10 | – | > 10 | – | > 10 | > 30 | > 10 | > 30 | > 10 | > 10
CC(=O)O[C@H]1CC[C@@]2(C)C(=CC[C@@H]3[C@@H]2CC[C@]2(C)C(c4cccnc4)=CC[C@@H]32)C1 [ABIRATERONE ACETATE] | > 30 | > 30 | > 30 | – | > 30 | > 30 | > 30 | > 30 | > 30 | > 30 | > 30 | – | > 30 | > 30 | > 30 | > 30 | > 30
CCOC(=O)OC(C)OC1=C(C(=O)Nc2ccccn2)N(C)S(=O)(=O)c2ccccc21 (stereo unspecified) [AMPIROXICAM] | – | > 30 | > 30 | > 30 | > 30 | > 30 | – | > 30 | – | > 30 | – | > 30 | > 30 | > 30 | > 30 | > 30 | > 30
C[C@]12CC[C@H]3[C@@H](CCC4=CC(=O)CC[C@@]43C)[C@@H]1CC[C@@H]2O [TESTOSTERONE] | – | > 10 | > 30 | > 10 | > 10 | > 30 | – | > 10 | – | > 10 | – | > 10 | > 30 | > 10 | > 30 | > 10 | > 10
Cn1c(=O)c2c(ncn2CC2OCCO2)n(C)c1=O [DOXOFYLLINE] | – | > 30 | > 30 | > 30 | > 30 | > 30 | – | > 30 | – | > 30 | – | > 30 | > 30 | > 30 | > 30 | > 30 | > 30
O=C(NCCN1CCOCC1)c1ccc(Cl)cc1 [MOCLOBEMIDE] | – | > 10 | > 30 | > 10 | > 10 | > 30 | – | > 10 | – | > 10 | – | > 10 | > 30 | > 10 | > 30 | > 10 | > 10
